Test results published in patent publication US7375180B2, “Methods and compositions related to IRM compounds and Toll-like receptor 8” (3M Innovative Properties Company, priority 2003, dated 2008).

What was measured:
[1] = target: T1, TLR8 (Homo sapiens, UniProt Q9NR97); assay: Dose dependent TLR8-mediated NF-κB-luciferase response in HEK293 cells transfected with TLR8 (Example 5); format: cell-based; design: expressed in transfected cells; host or cells: HEK293 (ATCC CRL-1573), pIRES vector, G-418 selected, co-transfected with NFkB-luc reporter
T1 sequence (Q9NR97 27-1041): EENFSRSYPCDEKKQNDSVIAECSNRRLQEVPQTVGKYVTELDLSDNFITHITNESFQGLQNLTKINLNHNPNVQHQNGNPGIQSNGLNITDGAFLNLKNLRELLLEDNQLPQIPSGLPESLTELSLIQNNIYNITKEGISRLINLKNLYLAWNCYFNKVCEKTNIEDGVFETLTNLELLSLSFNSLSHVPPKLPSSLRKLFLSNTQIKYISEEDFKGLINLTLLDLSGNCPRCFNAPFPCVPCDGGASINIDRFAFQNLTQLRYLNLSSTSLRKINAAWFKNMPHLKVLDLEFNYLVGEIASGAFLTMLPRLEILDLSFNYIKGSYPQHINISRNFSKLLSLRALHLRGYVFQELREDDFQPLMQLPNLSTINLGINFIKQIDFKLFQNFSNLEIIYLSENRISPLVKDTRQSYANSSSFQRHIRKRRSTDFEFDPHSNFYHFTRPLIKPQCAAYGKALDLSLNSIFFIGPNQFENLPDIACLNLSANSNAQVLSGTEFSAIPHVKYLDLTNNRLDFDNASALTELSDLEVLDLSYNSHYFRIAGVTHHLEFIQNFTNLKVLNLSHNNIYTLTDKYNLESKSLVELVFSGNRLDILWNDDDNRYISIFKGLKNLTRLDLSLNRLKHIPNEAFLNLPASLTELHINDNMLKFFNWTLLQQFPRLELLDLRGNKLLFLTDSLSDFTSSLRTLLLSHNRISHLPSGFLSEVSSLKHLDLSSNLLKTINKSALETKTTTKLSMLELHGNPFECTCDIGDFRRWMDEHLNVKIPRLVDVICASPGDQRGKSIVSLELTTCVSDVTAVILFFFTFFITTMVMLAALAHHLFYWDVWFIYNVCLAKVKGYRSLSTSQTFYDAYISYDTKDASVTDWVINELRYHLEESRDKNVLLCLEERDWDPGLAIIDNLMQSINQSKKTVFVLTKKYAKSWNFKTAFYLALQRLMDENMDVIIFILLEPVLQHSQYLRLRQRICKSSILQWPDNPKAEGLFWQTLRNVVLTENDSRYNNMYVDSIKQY
Protocol: Twenty-four hours before transfection, HEK293 cells were adhered to a 10 cm dish (Corning 430167, Corning Inc., Corning, N.Y.) at 37° C., 8% CO2. The cells were co-transfected with (1) pIRES (BD Biosciences Clontech, Palo Alto, Calif.) either (a) unmodified (HEK293-vector) or (b) containing human TLR8 (HEK293-TLR8), and (2) NFkB-luc reporter (Stratagene, La Jolla, Calif.) in a 10:1 ratio with Fugene 6 transfection reagent (Roche Diagnostics Corp., Indianapolis, Ind.) following the manufacturer's instructions. The plates were incubated for 24 hours following transfection and then selected in G-418 (400 μg/mL) for two weeks. The G-418-resistant cells containing either the TLR8 or empty vector were expanded in HEK293 media supplemented with G-418 for stimulation experiments.
The transfected cells were plated in white opaque 96 well plates (Costar 3917, Corning Inc., Corning, N.Y.) at a concentration of 5×10^4 cells per well in 100 μL of HEK293 media and incubated at 37° C., 8% CO2 for 4 hours. The cells were stimulated with 1 μL of IRM compounds at 1 mM in DMSO (final IRM concentration of 10 μM) or 1 μL DMSO as a control. The plates were then incubated an additional 16 hours at 37° C., 5% CO2. Luminescence was measured on an LMAX luminometer (Molecular Devices Corp., Sunnyvale, Calif.).
HEK293 cells were transfected as described in Example 1. HEK293 cultures were incubated with IRM compound or a negative control compound (1,5-dihydro-1-(2-methylpropyl)-4H-imidazo[4,5-c]quinolin-4-one, U.S. Pat. No. 4,698,348, Example 71) at concentrations of 0.1 μM, 0.3 μM, 1.0 μM, 3.0 μM, 10 μM, or 30 μM, or a vehicle control. Cultures were otherwise incubated as described in Example 1. Luciferase signals were read in RLU (Relative Luciferase Units) as described in Example 1.

[2] = target: T1, TLR8; assay: NF-κB-luciferase reporter activation in HEK293-TLR8 cells, 10 μM IRM (Example 1); format: cell-based; design: expressed in transfected cells; host or cells: HEK293 (ATCC CRL-1573), pIRES vector, G-418 selected, co-transfected with NFkB-luc reporter
Excerpt: (§1) HEK293 cells, derived from human embryonic kidney cells, may be co-transfected with (1) either a control vector (HEK293-vector) or a vector construct including human TLR8 (HEK293-TLR8), and (2) an NF-κB-luciferase reporter. The NF-κB-luciferase reporter provides a luciferase signal upon NF-κB activation in a transfected cell. Thus, TLR8-mediated NF-κB activity can be detected by exposing the cells transfected with vector and the cells transfected with the TLR8 construct to a test compound, then comparing the luciferase signal of the vector-transfected cells with the luciferase signal of the cells transfected with the TLR8 construct.
(§2) HEK293 cells were cultured in 90% Minimum Essential Medium (MEM) with 2 mM L-glutamine and Earle's Balanced Salt Solution (Invitrogen Corp., Rockville, Md.) adjusted to contain 1.5 g/L sodium bicarbonate, 0.1 mM non-essential amino acids, and 1.0 mM sodium pyruvate; 10% heat-inactivated fetal calf serum. The cells were incubated at 37° C., 8% CO2.
(§3) The cells were co-transfected with (1) pIRES (BD Biosciences Clontech, Palo Alto, Calif.) either (a) unmodified (HEK293-vector) or (b) containing human TLR8 (HEK293-TLR8), and (2) NFkB-luc reporter (Stratagene, La Jolla, Calif.) in a 10:1 ratio with Fugene 6 transfection reagent (Roche Diagnostics Corp., Indianapolis, Ind.) following the manufacturer's instructions.
(§4) The cells were stimulated with 1 μL of IRM compounds at 1 mM in DMSO (final IRM concentration of 10 μM) or 1 μL DMSO as a control. The plates were then incubated an additional 16 hours at 37° C., 5% CO2. Luminescence was measured on an LMAX luminometer (Molecular Devices Corp., Sunnyvale, Calif.).

[3] = system: HEK293-vector; assay: NF-κB-luciferase reporter activation in HEK293-vector control cells, 10 μM IRM (Example 1); format: cell-based, human; conditions: Homo sapiens, 16 hours, luciferase signal, vector-transfected cells, read-out: Fold Increase Over DMSO Control, HEK293-vector
Excerpt: as §1, §2, §3, §4

Structure (SMILES)	Fold increase over vehicle ([1]; 0.1 μM) [fold]	Fold increase over vehicle ([1]; 0.3 μM) [fold]	Fold increase over vehicle ([1]; 1.0 μM) [fold]	Fold increase over vehicle ([1]; 3.0 μM) [fold]	Fold increase over vehicle ([1]; 10 μM) [fold]	Fold increase over vehicle ([1]; 30 μM) [fold]	Fold Increase Over DMSO Control, HEK293-TLR8 ([2]; 16 hours, luciferase signal, TLR8-transfected cells) [fold]	Fold Increase Over DMSO Control, HEK293-TLR8 / HEK293-vector ([2]; ratio of TLR8-transfected to vector-transfected cells)	fold induction at 10 µM [3]
CCOCc1nc2c(N)nc3cc(-c4cncc(CO)c4)ccc3c2n1CC(C)(C)O [IRM52, 1-{4-amino-2-(ethoxymethyl)-7-[5-(hydroxymethyl)pyridin-3-yl]-1H-imidazo[4,5-c]quinolin-1-yl}-2-methylpropan-2-ol]	1.2	2.1	4.1	5.8	7.8	9.3	–	–	–
CCOCc1nc2c(N)nc3cc(-c4ccc(CO)cc4)ccc3c2n1CC1COC(C)(C)O1 (stereo not drawn) [IRM53, 1-[(2,2-dimethyl-1,3-dioxolan-4-yl)methyl]-2-(ethoxymethyl)-7-(4-hydroxymethylphenyl)-1H-imidazo[4,5-c]quinolin-4-amine]	0.9	1.0	1.4	2.0	3.6	7.7	–	–	–
CCOCc1nc2c(N)nc3ccccc3c2n1CC(C)(C)NC(=O)NC1CCCC1 [IRM54, 1-[2-(4-amino-2-ethoxymethyl-1H-imidazo[4,5-c]quinolin-1-yl)-1,1-dimethylethyl]-3-cyclopentylurea]	0.9	0.9	1.2	2.6	5.9	9.2	–	–	–
CCCNC(=O)NC(C)(C)Cn1c(COCC)nc2c(N)nc3ccccc3c21 [IRM55, 1-[2-(4-amino-2-ethoxymethyl-1H-imidazo[4,5-c]quinolin-1-yl)-1,1-dimethylethyl]-3-propylurea]	0.7	1.1	1.0	2.9	7.2	9.9	–	–	–
CCOCc1nc2c(N)nc3cc(-c4ccncc4)ccc3c2n1CC(C)(C)O [IRM56, 1-[4-amino-2-ethoxymethyl-7-(pyridin-4-yl)-1H-imidazo[4,5-c]quinolin-1-yl]-2-methylpropan-2-ol]	1.2	1.8	5.9	10.0	24.4	27.9	–	–	–
CCOCc1nc2c(N)nc3cc(-c4cccnc4)ccc3c2n1CC(O)CO (stereo not drawn) [IRM57, 3-[4-amino-2-(ethoxymethyl)-7-(pyridin-3-yl)-1H-imidazo[4,5-c]quinolin-1-yl]propane-1,2-diol]	1.4	1.7	3.1	7.2	10.4	12.5	–	–	–
CCOCc1nc2c(N)nc3cc(-c4cccc(C(=O)N5CCCC5)c4)ccc3c2n1CC(C)(C)O [IRM58, {3-[4-amino-2-ethoxymethyl-1-(2-hydroxy-2-methylpropyl)-1H-imidazo[4,5-c]quinolin-7-yl]phenyl}pyrrolidin-1-ylmethanone]	0.7	0.8	0.9	3.2	6.9	7.8	–	–	–
CCc1nc2c(N)nc3cc(-c4ccncc4)ccc3c2n1CC(C)(C)O [IRM59, 1-[4-amino-2-ethyl-7-(pyridin-4-yl)-1H-imidazo[4,5-c]quinolin-1-yl]-2-methylpropan-2-ol]	1.0	1.3	2.1	5.5	9.5	9.8	–	–	–
CCOCc1nc2c(N)nc3c(c2n1NC(C)C)CCCC3 [IRM60, 2-ethoxymethyl-N^1-isopropyl-6,7,8,9-tetrahydro-1H-imidazo[4,5-c]quinoline-1,4-diamine]	1.1	1.0	1.1	2.7	6.2	9.1	–	–	–
CCOCc1nc2c(N)nc3cc(-c4ccc(C(=O)N(C)OC)cc4)ccc3c2n1CC(C)(C)O [IRM61, 4-[4-amino-2-ethoxymethyl-1-(2-hydroxy-2-methylpropyl)-1H-imidazo[4,5-c]quinolin-7-yl]-N-methoxy-N-methylbenzamide]	1.0	1.1	2.9	6.7	10.3	9.4	–	–	–
CCOCc1nc2c(N)nc3c(c2n1CC(C)(C)O)CCCC3 [IRM 1, 4-amino-2-ethoxymethyl-α,α-dimethyl-6,7,8,9-tetrahydro-1H-imidazo[4,5-c]quinoline-1-ethanol]	–	–	–	–	–	–	8.64	10.2	0.85
